What all share (format): cell-based
The target in experiment [1] is T1, human EGFR exon 20 H773_V774insNPH (Homo sapiens, UniProt P00533, INS773NPH).
T1 construct: host or cells: Ba/F3
Description: EGFR Exon20 NPH insertion cellular phosphorylation inhibition (MSD pEGFR Y1068/total EGFR).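 Note: IL3-independent Ba/F3 cells with constitutively phosphorylated EGFR, compound exposure at 37 °C under 5% CO2, electrochemiluminescent MSD measurement of the p-EGFR to total EGFR ratio.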 Particulars: Ba/F3 EGFR NPH ins cells, 4 h compound, p-EGFR(Y1068)/total EGFR.

Experiment [2] has as its target T2, human EGFR exon 20 V769_D770insASV (Homo sapiens, UniProt P00533, INS769ASV).
T2 construct: expressed in transfected cells; host or cells: Ba/F3 (DSMZ ACC-300), lentiviral transduction, puromycin selection, IL3 depletion
As to the kind of experiment: EGFR Exon20 ASV insertion cellular phosphorylation inhibition (MSD pEGFR Y1068/total EGFR).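 Note: electrochemiluminescent readout on an MSD SECTOR Imager, IL3-independent transduced cells in medium with 1% FBS, compound concentration series at 37 °C and 5% CO2.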 Particulars: Ba/F3 EGFR ASV ins cells, 4 h compound, p-EGFR(Y1068)/total EGFR.

Another experiment addresses T3, EGFR L858R&T790M (Homo sapiens, UniProt P00533, L858R/T790M).
T3 construct: host or cells: NCI-H1975
As to the kind of experiment: EGFR L858R and T790M cellular phosphorylation inhibition in NCI-H1975 (MSD).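 Note: phosphorylated and total EGFR detected by electrochemiluminescence, cells exposed to compound in medium containing 1% FBS at 37 °C.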 Particulars: NCI-H1975 cells, 4 h compound, p-EGFR(Y1068)/total EGFR; read-out: EGFR L858R and T790M mutation IC50.

Experiment [3] has as its target T4, human Her2 exon 20 insertion mutation YVMA (Homo sapiens, UniProt P04626, INS775YVMA).
T4 construct: expressed in transfected cells; host or cells: NIH-3T3, lentiviral transduction, puromycin selection
As to the kind of experiment: Her2 Exon 20 YVMA insertion cellular phosphorylation inhibition (MSD p-Her2 Y1248/total Her2).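 Note: lentivirally transduced NIH-3T3 cells in 1% FBS medium, electrochemiluminescent MSD read-out, graded compound concentrations at 37 °C.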 Particulars: Her2 YVMAins cells, 4 h compound.
Description: The resulting cell line expressed phosphorylated Her2 protein and its proliferation depended on the mutation gene, which could be used for in vitro PD and anti-proliferation assays.
One day before the test, WT or mutant cells were seeded in 96 well plates at appropriate concentrations with corresponding growth media supplemented with 1% FBS, and incubated overnight. The next day, tested compounds at a series of concentrations were added into each individual well of the plates, and the plates were incubated for 4 h at 37° C. with 5% CO2.
The EGFR (Y1068) phosphorylation level (activity) of cells in each well were then measured with MSD kit named “MULTI-SPOT®96 4-Spot HB Prototype EGFR Triplex [sequence]: pEGFR(Tyr1068),pEGFR(Tyr1173), Total EGFR” according to the manufacturer’s instruction (MESO SCALE DISCOVERY, Cat# N45ZB-1). The assay is an electrochemiluminescent method for determining both phosphorylated and total EGFR of cells with an MSD SECTOR® Imager and the ratio of p-EGFR/total EGFR can be generated by the machine. The Her2 (Y1248) phosphorylation level (activity) of cells in each well were measured with MSD Kit named “Phospho-ErbB2 (Tyr1248) Assay Whole Cell Lysate Kit” according to the manufacturer’s instruction (MESO SCALE DISCOVERY, Cat# K151CLD-3). The assay is an electrochemiluminescent method (MESO SCALE DISCOVERY) for determining both phosphorylated and total Her2 of cells with an MSD SECTOR® Imager and then the ratio of p-Her2/total Her2 can be generated by the machine.

The target in the next experiment is T5, WT EGFR (Homo sapiens, UniProt P00533).
T5 construct: host or cells: A-431
T5 sequence (P00533 25-1210): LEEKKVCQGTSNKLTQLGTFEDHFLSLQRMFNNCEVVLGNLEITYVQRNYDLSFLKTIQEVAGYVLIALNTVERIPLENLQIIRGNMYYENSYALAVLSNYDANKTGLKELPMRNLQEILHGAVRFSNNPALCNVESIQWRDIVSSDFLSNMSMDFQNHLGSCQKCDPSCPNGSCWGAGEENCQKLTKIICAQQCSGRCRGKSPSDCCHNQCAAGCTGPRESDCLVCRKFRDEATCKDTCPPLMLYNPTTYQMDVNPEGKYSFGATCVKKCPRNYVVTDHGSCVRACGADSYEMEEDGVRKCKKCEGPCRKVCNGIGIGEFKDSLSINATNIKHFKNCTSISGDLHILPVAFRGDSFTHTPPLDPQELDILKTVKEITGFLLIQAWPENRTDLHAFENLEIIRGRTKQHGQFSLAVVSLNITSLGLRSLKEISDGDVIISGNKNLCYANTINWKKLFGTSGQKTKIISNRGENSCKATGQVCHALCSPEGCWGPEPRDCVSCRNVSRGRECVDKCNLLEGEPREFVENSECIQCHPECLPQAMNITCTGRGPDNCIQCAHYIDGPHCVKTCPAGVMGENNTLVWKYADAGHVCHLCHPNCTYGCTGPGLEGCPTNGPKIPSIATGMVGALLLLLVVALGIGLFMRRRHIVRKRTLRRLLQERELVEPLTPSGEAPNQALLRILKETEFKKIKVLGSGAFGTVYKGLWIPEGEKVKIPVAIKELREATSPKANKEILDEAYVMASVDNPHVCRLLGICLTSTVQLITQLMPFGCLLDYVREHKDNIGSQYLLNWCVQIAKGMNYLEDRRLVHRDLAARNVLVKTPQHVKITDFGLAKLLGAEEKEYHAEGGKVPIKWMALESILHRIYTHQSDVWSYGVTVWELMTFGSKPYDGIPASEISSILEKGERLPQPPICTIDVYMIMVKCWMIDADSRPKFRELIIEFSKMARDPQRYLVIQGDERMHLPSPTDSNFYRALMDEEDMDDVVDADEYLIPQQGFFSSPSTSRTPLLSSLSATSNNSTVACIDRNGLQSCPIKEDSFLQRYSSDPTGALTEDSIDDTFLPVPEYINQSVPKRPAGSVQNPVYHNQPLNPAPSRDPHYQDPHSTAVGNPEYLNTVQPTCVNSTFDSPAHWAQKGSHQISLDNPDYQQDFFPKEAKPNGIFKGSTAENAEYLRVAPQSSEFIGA
Description: WT EGFR cellular phosphorylation inhibition in A-431 (hEGF stimulated, MSD).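 Note: electrochemiluminescence read-out of EGFR Tyr1068 phosphorylation expressed as ratio to total EGFR, cells kept in medium with 1% FBS, compounds tested as a concentration series.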 Particulars: A431 cells, 4 h compound, then 100 ng/ml hEGF 10 min.

For the next experiment, the system named is Ba/F3 EGFR NPH ins cells. As to the kind of experiment: Cell proliferation, Ba/F3 EGFR NPH ins (CellTiter-Glo, 72 h).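 Note: IL3-independent cells carrying constitutively phosphorylated EGFR, compound dilution series, viable cells quantified by ATP luminescence, growth relative to DMSO wells after subtracting pre-dosing (day 0) baseline.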 Particulars: Ba/F3 EGFR, 72 h, Ba/F3 EGFR NPH ins, 72 h proliferation; read-out: EGFR Exon20 NPH insertion GI50. In general terms: Cellular ATP, detected with luciferase, serves as a proxy for viable cell number.
The next experiment concerns Ba/F3 EGFR ASV ins cells. Description: Cell proliferation, Ba/F3 EGFR ASV ins (CellTiter-Glo, 72 h).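 Note: IL3-independent Ba/F3 cells transduced with EGFR V769_D770insASV, cellular ATP luminescence after compound exposure, growth relative to DMSO control with the day-0 baseline reading subtracted.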 Particulars: Ba/F3 EGFR, 72 h, Ba/F3 EGFR ASV ins, 72 h proliferation; read-out: EGFR Exon20 ASV insertion GI50.
For experiment [4], the system named is NCI-H1975 EGFR L858R/T790M cells. Description: Cell proliferation, NCI-H1975 EGFR L858R/T790M (CellTiter-Glo, 72 h).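 Note: viable cells quantified by luciferase-based ATP luminescence, proliferation expressed relative to DMSO-treated wells (100%) after subtracting a parallel plate read at the time of dosing.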 Particulars: Homo sapiens, NCI-H1975, 72 h, NCI-H1975, 72 h proliferation; read-out: EGFR L858R and T790M mutation GI50.
The subject of experiment [5] is Her2 exon 20 insertion YVMA transduced NIH-3T3 cell line. Description: Cell proliferation, Her2 YVMAins NIH-3T3 (CellTiter-Glo, 72 h).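 Note: viable cells quantified by ATP luminescence, growth over a day-zero baseline plate expressed as percent of DMSO control growth, compound dilution series in 10% FBS medium.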 Particulars: Mus musculus, NIH3T3, 72 h, Her2 YVMAins cells, 72 h proliferation; read-out: Her2 Exon 20 YVMA insertion GI50.
The subject of the next experiment is WT EGFR cell line A-431. Description: Cell proliferation, WT EGFR A431 (CellTiter-Glo, 72 h).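 Note: proliferation from a luminescent ATP viability signal, expressed as 100 × (treated minus time-zero plate) over (DMSO control minus time-zero plate), cells grown with 10% FBS.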 To be noted: Homo sapiens, A-431, 72 h, A431, 72 h proliferation; read-out: EGFR WT A431 GI50.
A further experiment concerns OCI-LY-10 cells. As to the kind of experiment: BTK (wt) cell proliferation, OCI-LY-10 (CellTiter-Glo, 72 h).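 Note: viable cells quantified via cellular ATP luminescence, proliferation given as percent of DMSO control after subtracting a duplicate plate read at time of dosing.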 Particulars: Homo sapiens, OCI-Ly10, 72 h, OCI-LY-10 cells, 72 h, CellTiter-Glo; read-out: BTK WT OCI-LY-10 GI50.
For the next experiment, the system named is TMD-8 cells. As to the kind of experiment: BTK (wt) cell proliferation, TMD-8 (CellTiter-Glo, 72 h).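 Note: viable cells quantified by ATP-based luminescence, proliferation expressed as percent of DMSO control after subtracting a time-zero baseline plate read at dosing.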 Particulars: Homo sapiens, TMD8, 72 h, TMD-8 cells, 72 h, CellTiter-Glo; read-out: BTK WT TMD-8 GI50.
For the next experiment, the system named is Ri-1 cells. Description: BTK (wt) cell proliferation, Ri-1 (CellTiter-Glo, 72 h).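 Note: viable cells quantified as cellular ATP luminescence, proliferation normalized to a time-zero plate and the DMSO control, compounds tested across a dilution series.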 Particulars: Ri-1, 72 h, Ri-1 cells, 72 h, CellTiter-Glo; read-out: BTK WT Ri-1 GI50.
Another experiment relates to DB cells. Description: BTK (wt) cell proliferation, DB (CellTiter-Glo, 72 h).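 Note: DB cells in 384-well plates given a dilution series of compound, viable cells read by ATP luminescence, growth expressed versus DMSO control after subtracting a time-zero plate reading.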 Particulars: Homo sapiens, DB, DB cells, CellTiter-Glo, read-out: Non-BCR activated DB GI50.

T3 sequence (P00533 25-1210 T790M/L858R): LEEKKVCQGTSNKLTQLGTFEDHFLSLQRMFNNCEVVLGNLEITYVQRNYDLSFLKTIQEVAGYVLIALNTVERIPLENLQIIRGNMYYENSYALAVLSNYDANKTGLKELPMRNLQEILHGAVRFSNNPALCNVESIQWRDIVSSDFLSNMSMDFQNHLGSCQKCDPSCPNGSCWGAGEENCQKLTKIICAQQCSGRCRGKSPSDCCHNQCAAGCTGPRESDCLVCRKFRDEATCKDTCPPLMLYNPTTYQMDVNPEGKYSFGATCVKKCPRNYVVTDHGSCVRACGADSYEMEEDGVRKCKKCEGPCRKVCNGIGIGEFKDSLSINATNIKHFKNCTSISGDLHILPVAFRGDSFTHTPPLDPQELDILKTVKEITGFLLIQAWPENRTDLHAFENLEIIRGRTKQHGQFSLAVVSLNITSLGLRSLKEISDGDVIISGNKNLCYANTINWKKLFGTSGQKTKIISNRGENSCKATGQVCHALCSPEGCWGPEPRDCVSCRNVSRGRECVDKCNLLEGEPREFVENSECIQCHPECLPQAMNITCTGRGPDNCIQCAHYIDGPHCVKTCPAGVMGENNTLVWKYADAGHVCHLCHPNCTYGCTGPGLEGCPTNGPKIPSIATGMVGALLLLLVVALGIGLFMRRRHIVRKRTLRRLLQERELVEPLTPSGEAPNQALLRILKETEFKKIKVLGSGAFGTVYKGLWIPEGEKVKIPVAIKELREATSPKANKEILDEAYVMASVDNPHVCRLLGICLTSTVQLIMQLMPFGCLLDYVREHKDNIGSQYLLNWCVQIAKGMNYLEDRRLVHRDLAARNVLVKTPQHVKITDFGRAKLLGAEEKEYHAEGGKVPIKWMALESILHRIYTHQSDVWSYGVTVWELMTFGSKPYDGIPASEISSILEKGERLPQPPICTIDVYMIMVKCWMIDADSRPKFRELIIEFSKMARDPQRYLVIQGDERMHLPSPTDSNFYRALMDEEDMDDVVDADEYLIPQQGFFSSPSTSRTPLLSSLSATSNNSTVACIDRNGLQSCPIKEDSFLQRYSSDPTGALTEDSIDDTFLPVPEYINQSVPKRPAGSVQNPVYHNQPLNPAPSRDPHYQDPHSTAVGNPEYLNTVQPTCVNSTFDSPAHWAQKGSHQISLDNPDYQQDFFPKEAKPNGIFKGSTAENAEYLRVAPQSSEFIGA
T2 sequence (P00533 with tags, fused parts or gaps INS769ASV): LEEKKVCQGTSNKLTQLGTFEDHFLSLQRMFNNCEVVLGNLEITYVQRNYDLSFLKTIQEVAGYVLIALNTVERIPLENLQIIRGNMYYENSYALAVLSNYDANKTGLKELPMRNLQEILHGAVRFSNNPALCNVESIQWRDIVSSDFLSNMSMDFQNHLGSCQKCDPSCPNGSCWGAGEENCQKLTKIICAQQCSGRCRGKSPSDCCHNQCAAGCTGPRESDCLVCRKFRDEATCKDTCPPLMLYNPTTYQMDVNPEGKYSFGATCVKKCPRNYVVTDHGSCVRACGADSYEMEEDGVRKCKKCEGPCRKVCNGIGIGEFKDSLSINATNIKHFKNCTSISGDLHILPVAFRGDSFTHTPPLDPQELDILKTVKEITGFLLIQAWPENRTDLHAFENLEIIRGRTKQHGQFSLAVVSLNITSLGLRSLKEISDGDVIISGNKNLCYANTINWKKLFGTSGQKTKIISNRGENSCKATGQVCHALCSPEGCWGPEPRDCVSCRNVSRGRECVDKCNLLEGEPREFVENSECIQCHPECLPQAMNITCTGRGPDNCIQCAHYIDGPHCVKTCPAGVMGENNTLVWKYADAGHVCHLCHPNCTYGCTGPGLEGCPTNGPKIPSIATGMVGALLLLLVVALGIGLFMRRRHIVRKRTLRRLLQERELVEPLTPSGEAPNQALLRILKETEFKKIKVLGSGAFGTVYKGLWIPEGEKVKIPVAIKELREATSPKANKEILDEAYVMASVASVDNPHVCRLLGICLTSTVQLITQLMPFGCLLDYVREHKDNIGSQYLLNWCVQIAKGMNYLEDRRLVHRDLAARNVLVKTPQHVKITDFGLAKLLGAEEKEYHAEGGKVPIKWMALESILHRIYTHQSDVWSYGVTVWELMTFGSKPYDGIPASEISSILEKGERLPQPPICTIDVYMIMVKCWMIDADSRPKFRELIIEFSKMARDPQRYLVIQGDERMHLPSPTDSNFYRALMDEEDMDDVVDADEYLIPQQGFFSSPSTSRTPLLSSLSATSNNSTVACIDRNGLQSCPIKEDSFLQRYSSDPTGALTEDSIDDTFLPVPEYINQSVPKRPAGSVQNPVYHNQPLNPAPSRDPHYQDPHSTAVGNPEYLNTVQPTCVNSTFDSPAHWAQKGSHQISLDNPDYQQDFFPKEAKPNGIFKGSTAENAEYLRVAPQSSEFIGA
T4 sequence (P04626 with tags, fused parts or gaps INS775YVMA): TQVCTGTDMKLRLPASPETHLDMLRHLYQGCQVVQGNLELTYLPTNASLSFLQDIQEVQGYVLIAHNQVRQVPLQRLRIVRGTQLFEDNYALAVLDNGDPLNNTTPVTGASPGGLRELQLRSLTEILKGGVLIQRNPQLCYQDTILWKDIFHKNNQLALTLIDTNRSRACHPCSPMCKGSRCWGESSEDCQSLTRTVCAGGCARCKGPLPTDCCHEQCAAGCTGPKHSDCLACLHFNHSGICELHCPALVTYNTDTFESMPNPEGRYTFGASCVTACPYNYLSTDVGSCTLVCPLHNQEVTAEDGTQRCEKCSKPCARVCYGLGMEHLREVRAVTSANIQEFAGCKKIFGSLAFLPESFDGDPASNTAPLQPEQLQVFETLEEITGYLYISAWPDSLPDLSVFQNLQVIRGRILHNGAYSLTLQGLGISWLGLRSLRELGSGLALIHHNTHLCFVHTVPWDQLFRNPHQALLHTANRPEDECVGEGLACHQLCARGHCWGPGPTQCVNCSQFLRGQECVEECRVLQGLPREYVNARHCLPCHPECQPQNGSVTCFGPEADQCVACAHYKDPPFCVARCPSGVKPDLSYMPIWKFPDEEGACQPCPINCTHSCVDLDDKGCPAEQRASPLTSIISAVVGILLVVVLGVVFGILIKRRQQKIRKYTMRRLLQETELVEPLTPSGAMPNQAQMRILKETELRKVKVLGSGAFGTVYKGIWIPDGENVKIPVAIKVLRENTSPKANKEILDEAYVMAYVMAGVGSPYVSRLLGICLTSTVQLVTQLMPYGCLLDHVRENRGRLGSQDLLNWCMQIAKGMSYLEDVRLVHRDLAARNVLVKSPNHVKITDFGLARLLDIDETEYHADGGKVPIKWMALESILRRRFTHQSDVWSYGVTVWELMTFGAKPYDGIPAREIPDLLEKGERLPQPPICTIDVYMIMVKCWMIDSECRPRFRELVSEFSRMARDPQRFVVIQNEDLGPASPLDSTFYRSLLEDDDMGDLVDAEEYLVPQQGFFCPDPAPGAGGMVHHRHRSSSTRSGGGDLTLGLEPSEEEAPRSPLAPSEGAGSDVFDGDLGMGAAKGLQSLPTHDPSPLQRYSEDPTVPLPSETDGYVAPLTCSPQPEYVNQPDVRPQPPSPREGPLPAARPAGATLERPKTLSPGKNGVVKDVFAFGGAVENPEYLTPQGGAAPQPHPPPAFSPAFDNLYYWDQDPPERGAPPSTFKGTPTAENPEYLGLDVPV
Description for DB cells: OCI-LY-10 at 3,750 cells/well, TMD-8 and Ri-1 at 2,000 cells/well, and DB at 1,250 cells/well, respectively, were sorted into 384-well plates in RPMI1640 medium with 10% FBS. After overnight incubation, all cells were incubated with compound at a series of concentrations. Meanwhile, a duplicated plate of each cell line was prepared for measuring G0 value. The dosed plates were further incubated for 72 hours and the number of viable cells was measured by CellTiter-Glo® Luminescent Cell Viability Assay (Promega), a luminescent method for determining the number of viable cells through measurement of cellular ATP concentration using Envision plate reader (PerkinElmer). The percentage of proliferation was calculated as: % Proliferation = 100 × (G3 value of sample well - G0 value)/(G3 value of DMSO control - G0 value).
Description for WT EGFR cell line A-431: WT or mutant cells were seeded in 384 well plates at appropriate concentrations with corresponding growth media supplemented with 10% FBS, for each experiment, identical plates were prepared in duplicates, and the plates were incubated overnight. On the next day, one of each duplicated plates was dosed with tested compounds at a series of concentrations, and another one of the duplicated plate was analysied for G0 value. The dosed plates were incubate for another 72 h at 37° C. with 5% CO2 and the number of viable cells in each well of the G0 plates or the dosed plates were measured by CellTiter-Glo® Luminescent Cell Viability Assay (Promega). This assay is a luminescent method for determining the number viable cells through measurement of cellular ATP concentration by detection of luciferase activity. Detection reagents (15 µl) was dispensed into per well, and the plates were incubate for 30 min at room temperature. Then, the luminescence in each well was measured using the Envision plate reader (PerkinElmer). The percentage of proliferation was calculated based on the formula: %Proliferation= 100 × (G3 value of sample well-Go value)/(G3 value of DMSO control-Go value).

A word on the IC50: it is the concentration that gives 50% inhibition. Broadly, the GI50 is the concentration that inhibits growth by half. As to `C=CC(=O)Nc1cc(Nc2ncnc(Nc3cc(F)c(F)cc3C(C)(C)O)n2)c(OC)cc1N1CC[C@@H](N(C)C)C1` [Compound 27, (R)-N-(5-(4-(4,5-difluoro-2-(2-hydroxypropan-2-yl)phenylamino)-1,3,5-triazin-2-ylamino)-2-(3-(dimethylamino)pyrrolidin-1-yl)-4-methoxyphenyl)acry lamide], the IC50 came out at 28.3 nM in [1]; 19.4 nM in experiment [2]; 0.7 nM on EGFR L858R&T790M; 15.6 nM in [3]; 34.8 nM against WT EGFR. The GI50 amounted to 57.9 nM with Ba/F3 EGFR NPH ins cells; 64.7 nM with Ba/F3 EGFR ASV ins cells; 5.2 nM in [4]; 106 nM in experiment [5]; 26.2 nM in the experiment on WT EGFR cell line A-431; 17.7 nM in the experiment on OCI-LY-10 cells. Also, the GI50 was 11.6 nM in the experiment on TMD-8 cells, 120 nM in the experiment on Ri-1 cells and more than 3000 nM in the experiment with DB cells.

Consider `C=CC(=O)Nc1cc(Nc2ncnc(Nc3cc(Cl)c(F)cc3C(C)(C)O)n2)c(OC)cc1N1CC[C@@H]2CN(C)C[C@@H]21` [Compound 28, N-(5-(4-(5-chloro-4-fluoro-2-(2-hydroxypropan-2-yl)phenylamino)-1,3,5-triazin-2-ylamino)-4-methoxy-2-((3aR,6aR)-5-methylhexahydropyrrolo[3,4-b]pyrrol-1 (2H)-yl)phenyl)acrylamide], for which the IC50 stood at 50.6 nM in experiment [1]; 21.7 nM in experiment [2]; 1.4 nM at EGFR L858R&T790M; 15.2 nM in [3]; 42.1 nM against WT EGFR. Also, the GI50 in the experiment on Ba/F3 EGFR NPH ins cells was 67.7 nM; with Ba/F3 EGFR ASV ins cells, 58.2 nM; in experiment [4], 8.9 nM; in [5], 114 nM; in the experiment with WT EGFR cell line A-431, 21.2 nM; in the experiment with OCI-LY-10 cells, 119 nM. In addition, the GI50 in the experiment with TMD-8 cells was 34 nM; in the experiment on Ri-1 cells, 230 nM; in the experiment on DB cells, more than 3000 nM.

`C=CC(=O)Nc1cc(Nc2ncnc(Nc3cc(Cl)c(F)cc3C(C)(C)O)n2)c(OC)cc1N(C)CCN1CCCC1` [Compound 29, N-(5-(4-(5-chloro-4-fluoro-2-(2-hydroxypropan-2-yl)phenylamino)-1,3,5-triazin-2-ylamino)-4-methoxy-2-(methyl(2-(pyrrolidin-1-yl)ethyl)amino)phenyl)acrylamide]: the IC50 in [1] was 22.9 nM; in experiment [2] it was 17.4 nM; at EGFR L858R&T790M, 1 nM; in experiment [3] it was 7.6 nM; at WT EGFR, 45.3 nM. For the same compound, the GI50 with Ba/F3 EGFR NPH ins cells amounted to 52.7 nM; with Ba/F3 EGFR ASV ins cells, 45.2 nM; in [4], 6.9 nM; in [5], 68.3 nM; in the experiment with WT EGFR cell line A-431, 20.1 nM; in the experiment with OCI-LY-10 cells, 35.5 nM. Also, the GI50 in the experiment with TMD-8 cells is 11.3 nM; in the experiment with Ri-1 cells, 44.8 nM; in the experiment on DB cells, more than 3000 nM.

Regarding `C=CC(=O)Nc1cc(Nc2ncnc(Nc3cc(Cl)c(F)cc3C(C)(C)O)n2)c(OC)cc1N(C)C[C@H]1CCCN1C` [Compound 30, (R)-N-(5-(4-(5-chloro-4-fluoro-2-(2-hydroxypropan-2-yl)phenylamino)-1,3,5-triazin-2-ylamino)-4-methoxy-2-(methyl((1-methylpyrrolidin-2-yl)methyl)amino)phenyl) acrylamide], the IC50 in experiment [1] turned out to be 11.1 nM; in experiment [2], 5.7 nM; on EGFR L858R&T790M, 0.5 nM; in experiment [3], 5.5 nM; against WT EGFR, 13.2 nM. Moreover, the GI50 in the experiment on Ba/F3 EGFR NPH ins cells was 19.3 nM; in the experiment with Ba/F3 EGFR ASV ins cells, 25.9 nM; in experiment [4], 3.7 nM; in experiment [5], 47.5 nM; in the experiment on WT EGFR cell line A-431, 12.4 nM; in the experiment with OCI-LY-10 cells, 13.1 nM. In addition, the GI50 in the experiment on TMD-8 cells is 17.8 nM; in the experiment on Ri-1 cells it was 28.6 nM; with DB cells it was more than 3000 nM.

Regarding `C=CC(=O)Nc1cc(Nc2ncnc(Nc3cc(Cl)c(F)cc3C(C)(C)O)n2)c(OC)cc1N1CCC[C@@H]1CN(C)C` [Compound 31, (R)-N-(5-(4-(5-chloro-4-fluoro-2-(2-hydroxypropan-2-yl)phenylamino)-1,3,5-triazin-2-ylamino)-2-(2-((dimethylamino)methyl)pyrrolidin-1-yl)-4-methoxyphenyl)acrylamide], the IC50 came to 13.8 nM in experiment [1]; 5 nM in experiment [2]; 0.5 nM on EGFR L858R&T790M; 4.3 nM in experiment [3]; 5.5 nM on WT EGFR. Also, the GI50 with Ba/F3 EGFR NPH ins cells is 47.9 nM; in the experiment with Ba/F3 EGFR ASV ins cells, 9.2 nM; in experiment [4], 4.2 nM; in experiment [5], 60.1 nM; in the experiment with WT EGFR cell line A-431, 4.2 nM; in the experiment on OCI-LY-10 cells, 30 nM. The GI50 was 7.18 nM in the experiment on TMD-8 cells, 59.9 nM in the experiment on Ri-1 cells and more than 3000 nM in the experiment on DB cells.

For `C=CC(=O)Nc1cc(Nc2ncnc(Nc3cc4ccn(C)c4cc3C(C)(C)O)n2)c(OC)cc1N(C)CCN(C)C` [Compound 32, N-(2-((2-(dimethylamino)ethyl)(methyl)amino)-5-(4-(6-(2-hydroxypropan-2-yl)-1-methyl-1H-indol-5-ylamino)-1,3,5-triazin-2-ylamino)-4-methoxyphenyl)acrylamide], the IC50 in experiment [1] came out at 14.8 nM; in experiment [2], 3.7 nM; at EGFR L858R&T790M it was 0.4 nM; in experiment [3], 7.8 nM; at WT EGFR, 11 nM. Also, the GI50 with Ba/F3 EGFR NPH ins cells is 19.1 nM; with Ba/F3 EGFR ASV ins cells, 19.3 nM; in experiment [4], 1.8 nM; in experiment [5], 35.2 nM; in the experiment with WT EGFR cell line A-431 it was 6 nM; with OCI-LY-10 cells, 0.29 nM. The GI50 was 0.26 nM with TMD-8 cells, 0.71 nM in the experiment on Ri-1 cells and more than 3000 nM with DB cells.

On to `C=CC(=O)Nc1cc(Nc2ncnc(Nc3cc(F)c(C4CC4)cc3C(C)(C)O)n2)c(OC)cc1N(C)CCN(C)C` [Compound 34, N-(5-(4-(4-cyclopropyl-5-fluoro-2-(2-hydroxypropan-2-yl)phenylamino)-1,3,5-triazin-2-ylamino)-2-((2-(dimethylamino)ethyl)(methyl)amino)-4-methoxyphenyl)acrylamide], for which the IC50 turned out to be 6.2 nM in experiment [1]; 4.4 nM in [2]; 0.5 nM on EGFR L858R&T790M; 4.2 nM in experiment [3]; 6 nM on WT EGFR. The GI50 with Ba/F3 EGFR NPH ins cells is 16.4 nM; in the experiment with Ba/F3 EGFR ASV ins cells it was 17.6 nM; in [4] it was 1.6 nM; in experiment [5], 21.1 nM; in the experiment on WT EGFR cell line A-431 it was 7.5 nM; with OCI-LY-10 cells, 7.6 nM. For the same compound, the GI50 with TMD-8 cells is 12.3 nM; with Ri-1 cells it was 16.6 nM; in the experiment with DB cells it was more than 3000 nM.

For the compound `C=CC(=O)Nc1cc(Nc2ncnc(Nc3cc(F)c(F)cc3C(C)(C)O)n2)c(OC)cc1N1CCOC[C@@H]1CN(C)C` [Compound 35, (S)-N-(5-(4-(4,5-difluoro-2-(2-hydroxypropan-2-yl)phenylamino)-1,3,5-triazin-2-ylamino)-2-(3-((dimethylamino)methyl)morpholino)-4-methoxyphenyl) acrylamide], the IC50 in [1] was determined as 9.2 nM; in [2], 5.4 nM; at EGFR L858R&T790M, 0.5 nM; in experiment [3], 4.7 nM; on WT EGFR it was 13.9 nM. The GI50 in the experiment on Ba/F3 EGFR NPH ins cells stood at 22.2 nM; in the experiment on Ba/F3 EGFR ASV ins cells it was 24.3 nM; in [4], 1.5 nM; in experiment [5], 39.4 nM; in the experiment with WT EGFR cell line A-431, 21.9 nM; in the experiment with OCI-LY-10 cells it was 986 nM. Besides, the figures for the GI50 with TMD-8 cells, in the experiment on Ri-1 cells and in the experiment with DB cells were 377 nM, 699 nM and more than 3000 nM, respectively.

Values taken from patent publication US20230293535A1, “ERBB/BTK INHIBITORS” (Dizal (Jiangsu) Pharmaceutical Co., Ltd., priority 2018, published 2023).
